Where “and” joins values, the source holds several entries; their conditions need not be identical. Equal entries are not always repeated.
Experiments:
PaFolD [1] = biological target: T1, PaFolD (Pseudomonas aeruginosa, UniProt Q9I2U6); experiment: FolD enzyme assay (absorbance at 350 nm), IC50 determination; assay type: biochemical; settings: for Hill coefficient: from PaFolD IC50 curves
T1 construct: hexa-histidine tag with TEV protease site (N, cleaved yes); made in house; host or cells: E. coli BL21 (DE3)
T1 sequence (Q9I2U6 whole entry): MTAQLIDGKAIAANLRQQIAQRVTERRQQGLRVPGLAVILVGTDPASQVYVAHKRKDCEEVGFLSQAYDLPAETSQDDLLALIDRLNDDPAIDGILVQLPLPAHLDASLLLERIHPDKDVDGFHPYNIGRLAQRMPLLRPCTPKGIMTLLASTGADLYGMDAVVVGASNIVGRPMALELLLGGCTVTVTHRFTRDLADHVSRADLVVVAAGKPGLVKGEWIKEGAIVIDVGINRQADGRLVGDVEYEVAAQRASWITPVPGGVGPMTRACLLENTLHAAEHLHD
Protocol: Enzyme activity was assayed by measuring the absorbance at 350 nm of the intermediate product in the reaction, N ^5,N ^10-methenyl-THF, following acidification of the reaction and consequent reconversion of the final product formyl-THF to the intermediate. Following optimization of the assay buffer and determination of the enzyme linearity, assays were carried out at room temperature in a 50 µL reaction volume containing 25 mM bicine, pH 7.9, 1 mM dithiothreitol, 0.05% CHAPS, 0.2 mg mL^−1 BSA, 1 nM recombinant FolD, […] NADP^+ and 35 µM N ^5,N ^10-methylene-THF. Michaelis constants for the two substrates (NADP^+ and N ^5,N ^10-methylene-THF) were determined in an end-point assay, using these buffer and enzyme conditions.
The HTS was performed with a compound collection of 79,029 diverse structures based around 4000 chemical scaffolds. All compounds were dissolved in 100% DMSO to a concentration of 3 mM. Single point inhibition assays were carried out at room temperature in clear, flat bottom, polystyrene, 384-well plates (Matrix). Each assay was performed in a 50 µL reaction volume as described above. A standard compound (0.5 µL in DMSO) was transferred to all assay plates using a Cartesian Hummingbird (Genomics Solutions) before 25 µL of a reaction mix, containing all assay components except NADP^+ and N ^5,N ^10-methylene-THF, was added to assay plates using a Thermo Scientific Well-Mate (Matrix). The reaction was initiated and stopped with the additions of 25 µL of substrate and 50 µL of 1 M HCl, respectively, again using a Well-Mate. The FolD assay was run at room temperature for 20 min and the signal was allowed to develop for 10 min before the absorbance of each well was read at 350 nm using an EnVision multilabel plate reader (PerkinElmer Life Sciences). ActivityBase (ID Business Solutions) was used for data processing and analysis.
Compounds of interest were cherry picked from the original library plates using a series of 10-point inhibitor curves (consisting of half-log serial dilutions of compound in DMSO) and prepared in 384-well plates using a JANUS workstation (PerkinElmer Life Sciences). Each compound plate produced 10-point inhibitor curves for 30 test compounds and two curves for LY374571, the standard compound in this screen (see following paragraph for inhibitor details). Following preparation of the inhibitor curves, assays were carried out as described above. ActivityBase was again used for data processing and analysis. All IC50 curve fitting was undertaken within ActivityBase XE utilizing the underlying ‘MATH IQ’ engine of XLfit version 5.1.0.0. A four-parameter logistic dose-response curve was utilized for compound potency determination.
Enzyme activity was assayed in an optimised buffer at 1 nM PaFolD. […] When saturating concentrations of either substrate or co-factor were required N ^5,N ^10-methylene-THF was used at 250 µM and NADP^+ at 1 mM. For screening the compound library N ^5,N ^10-methylene-THF was fixed at a concentration of 35 µM and NADP^+ was saturating at 1 mM and the assay was stopped after 20 minutes (within the linear range of the assay).

PaFolD [2] = biological target: T1, PaFolD; experiment: Differential scanning fluorimetry (DSF) thermal shift screen; assay type: binding; settings: standards at 250 µM; 4 µM PaFolD, 4 mM NADP+
Source text: It was reasoned that such conditions would favour crystallization. In addition two compound libraries, the Maybridge fragment set and the Prestwick collection of biologically active molecules, were screened after first assessing the suitability of the method for PaFolD, the optimum buffer and cofactor conditions and the lowest concentration of protein that generated a strong signal as previously described for our laboratory. An Mx3005p RT PCR system (Stratagene) was used to monitor protein unfolding by the increase in fluorescence of SYPRO Orange dye (Invitrogen). Briefly, the enzyme was tested against 1000 compounds from the Maybridge Rule of Three (Ro3) fragment library and 1120 compounds from the Prestwick Chemical Library. Assays were carried out in 40 µL volumes with PaFolD at 4 µM, supplemented with 4 mM NADP^+ in 50 mM Tris-HCl, 250 mM NaCl, pH 7.5 in 96 well RT PCR plates (Abgene). […] After each 1°C increase the sample was excited at 492 nm and fluorescence emissions recorded at 610 nm. […]
In advance of performing a large-scale HTS, PaFolD was assayed combining DSF with the Prestwick Chemical Library of drug-like molecules (1,200 compounds) and a bespoke Maybridge RO3 fragment library of 1,000 compounds. […] A number of compounds in the Prestwick library gave apparent thermal shifts of approximately +10°C, however all of these were rejected due to their intrinsic fluorescence. […]

[3] = tested on: P. aeruginosa PAO1 ATCC 15692; experiment: Disc diffusion sensitivity testing; assay type: cell-based, Pseudomonas aeruginosa; settings: for clearance in disc diffusion sensitivity assay: six dilutions, approximately 115 µg to 4.5 ng per disc, zones measured after 16 and 48 hours, data not shown
Protocol: Compounds identified by HTS were used in a disc diffusion sensitivity test against P. aeruginosa. Briefly a single colony of P. aeruginosa PAO1 ATCC 15692 was used to inoculate a 2 mL volume of LB media prior to overnight growth at 37°C. The bacteria were then diluted 1∶100 fold prior to 100 µL volumes plated onto Iso-Sensitest agar plates and dried in air for 5 minutes. Eight 3 mm discs were impregnated with 5 µl of compound, dissolved in DMSO, prior to loading onto each plate. Two controls were used per plate, one a 100% DMSO stock, the other a 10 µg stock of gentamycin. Six compound dilutions were tested per plate, ranging from approximately 115 µg to 4.5 ng. Three compounds with known antifolate activity were tested, namely methotrexate, LY354899 and LY374571 in addition to the three singletons, DDD32388, DDD55519 and DDD61461, and two of the biaryl sulphonamide series that had been identified. Plates were incubated at 37°C, and zones of inhibition measured after 16 and 48 hours.

HsFolD = settings: slightly different assay conditions; read-out: IC50 against HsFolD; cited from earlier work
PaFolD [4] = biological target: T1, PaFolD; experiment: Surface plasmon resonance (SPR) binding to biotinylated PaFolD; settings: for rate of association (SPR): association measured for 1 min, LY374571 could not compete off this binding; for binding to PaFolD by SPR: running buffer with 1 mM NADP+, 1% DMSO, data not shown
Protocol: For analysis of compounds using SPR it was necessary to produce an expression system that provided a protein carrying a biotinylation acceptor peptide (BAP-tag). This BAP-tag peptide has the sequence 5′ - […] - 3′ and is specifically biotinylated by the E. coli biotin holoenzyme synthetase, BirA. The modified PaFolD was then purified as before. Subsequently 30 µM of BAP-tagged PaFolD was incubated at 37°C overnight in buffer C (10 mM Tris-HCl pH 7.5, 200 mM KCl, 5 mM MgCl2, 100 µM d-biotin) containing 500 µM ATP and 1 µM BirA. The sample was passed through a HisTrap HP column equilibrated with buffer A to remove BirA. The flow through was collected and concentrated (Amicon 10 kDa MWCO spin column) to remove free biotin. The incorporation of biotin was monitored by MALDI-TOF analysis performed at the University of Dundee ‘Fingerprints’ Proteomics Facility using an Applied Biosystems Voyager DE-STR spectrometer. The biotinylated protein was flash frozen at 10 mg mL^−1 in 50 mM Tris-HCl, 250 mM NaCl, 15% glycerol, pH 7.5 and stored at −80°C until required.
A Biacore T100 instrument (GE Healthcare) was used for all SPR experiments. Biotinylated PaFolD was diluted 50-fold into a running buffer containing 50 mM Tris-HCl, pH 7.5, 150 mM NaCl, 5 mM MgCl2, 1 mM DTT, 0.05% Tween 20, 1 mM NADP^+ and 1% DMSO and injected over a streptavidin chip (GE Healthcare) at a flow rate of 10 µL min^−1 for 10 min to obtain a density of ∼4,000 response units. Compounds DDD55519 and DDD61461 were injected in duplicates at three-fold concentration series 136 nM–11 µM at a flow rate 30 µL min^−1. Association was measured for 1 min and dissociation for 20 min. Compounds DDD32388 and DDD58331 were injected at three-fold concentration series of between 1.23 µM–100 µM at a flow rate 30 µL min^−1. Association was measured for 1 min and dissociation 2 min. Data were referenced from a blank streptavidin surface and blank injections of buffer. Processing was carried out using Scrubber 2 software (BioLogic Software, Australia).

[5] = IC50 (μM), confirmed HTS hits, ten-point dose response, 30 µM to 1 nM

NC(=O)c1ccc[n+]([C@@H]2O[C@H](COP(=O)([O-])OP(=O)(O)OC[C@H]3O[C@@H](n4cnc5c(N)ncnc54)[C@H](OP(=O)(O)O)[C@@H]3O)[C@@H](O)[C@H]2O)c1 [NADP^+]
Km (PaFolD [1]; 1 nM PaFolD, end-point assay, other substrate saturating, mean ± SD (n = 4), read-out: Michaelis constant (Km)): 179 ± 11 µM

Nc1nc(O)c(N)c(NC(=O)Nc2ccc(C(=O)N[C@H](CCC(=O)O)C(=O)O)cc2)n1 [LY374571, (2R)-2-[(4-{[(2,5-diamino-6-hydroxypyrimidin-4-yl)carbamoyl]amino}phenyl)formamido] pentanedioic acid]
ΔTm at 250 µM (PaFolD [2]): 15 °C
IC50 (PaFolD [1]; IC50 against PaFolD, 1 nM PaFolD, 35 µM N5,N10-methylene-THF, 1 mM NADP+, 20 min): ~0.03 µM and 0.027 µM
clearance in disc diffusion sensitivity assay [3]: failed to give any clearance
IC50 (HsFolD): 0.003 µM

gentamycin
radius cleared (zone of inhibition) ([3]; 10 µg stock control disc, P. aeruginosa PAO1): 13 mm

Nc1nc2c(c(=O)[nH]1)N1C(=O)N(c3ccc(C(=O)N[C@@H](CCC(=O)O)C(=O)O)cc3)CC1CN2 (stereo partly shown) [LY354899, 5,6,7,8-tetrahydro-N ^5,N ^10-carbonylfolic acid]
thermal shift (PaFolD [2]): +9 °C
clearance in disc diffusion sensitivity assay [3]: failed to give any clearance

Cc1[nH]c2c(C#N)cnn2c(=O)c1Cc1ccccc1 [DDD55519]
IC50 (PaFolD [1]; [5]): 3.8 µM
Hill coefficient (PaFolD [1]): 1.2
rate of association (SPR) (PaFolD [4]): slow rates of association
binding to PaFolD by SPR (PaFolD [4]): confirmed

CCOc1nc(N)nc(N)c1S(=O)(=O)c1ccc(Cl)cc1 [DDD32388]
IC50 (PaFolD [1]; [5]): 0.9 µM
Hill coefficient (PaFolD [1]): 1.6
binding to PaFolD by SPR (PaFolD [4]): weak

Oc1cc(C(F)(F)F)nc(SCc2c(F)cccc2Cl)n1 [DDD61461]
IC50 (PaFolD [1]; [5]): 2.5 µM
Hill coefficient (PaFolD [1]): 2.6
rate of association (SPR) (PaFolD [4]): slow rates of association
binding to PaFolD by SPR (PaFolD [4]): confirmed
